Source: patent publication US8802597B2, “Herbicidal pyrimidines” (E I du Pont de Nemours and Company, priority 2003, dated 2014)
Where two headings read alike, the source gives them in different places.

How the values were obtained:
Assay type in all cases: in vivo
[1] = test system: Surinam grass (Brachiaria decumbens); test: Test B pre/postemergence; conditions: Urochloa decumbens; for pest or weed control at 125 g/ha: 125 g ai/ha; for pest or weed control at 500 g/ha: 500 g ai/ha
Method in brief: (§1)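 Visual injury scored 0 (no effect) to 100 (complete control) versus untreated controls after 13 to 15 days in greenhouse. Treatments were pre- or postemergence sprays of surfactant-containing solvent formulations; postemergence plants at 1- to 4-leaf stage, 2 to 18 cm.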

[2] = test system: barnyardgrass (Echinochloa crus-galli); test: Test B pre/postemergence; conditions: Echinochloa crus-galli; for pest or weed control at 125 g/ha: 125 g ai/ha; for pest or weed control at 500 g/ha: 500 g ai/ha
Method in brief: as §1

[3] = test system: wheat (Triticum aestivum); test: Test B pre/postemergence; conditions: Triticum aestivum; for plant injury at 125 g/ha: 125 g ai/ha; for plant injury at 500 g/ha: 500 g ai/ha
Method in brief: as §1

[4] = test system: giant foxtail (Setaria faberii); test: Test B pre/postemergence; conditions: Setaria faberi; for pest or weed control at 125 g/ha: 125 g ai/ha; for pest or weed control at 500 g/ha: 500 g ai/ha
Method in brief: as §1

[5] = test system: velvetleaf (Abutilon theophrasti); test: Test B pre/postemergence; conditions: Abutilon theophrasti; for pest or weed control at 125 g/ha: 125 g ai/ha; for pest or weed control at 500 g/ha: 500 g ai/ha
Method in brief: as §1

[6] = test system: pigweed (Amaranthus retroflexus); test: Test B pre/postemergence; conditions: Amaranthus retroflexus; for pest or weed control at 125 g/ha: 125 g ai/ha; for pest or weed control at 500 g/ha: 500 g ai/ha
Method in brief: as §1

[7] = test system: cocklebur (Xanthium strumarium); test: Test B pre/postemergence; conditions: Xanthium strumarium; for pest or weed control at 125 g/ha: 125 g ai/ha; for pest or weed control at 500 g/ha: 500 g ai/ha
Method in brief: as §1

[8] = test system: crabgrass (Digitaria sanguinalis); test: Test B pre/postemergence; conditions: Digitaria sanguinalis; for pest or weed control at 125 g/ha: 125 g ai/ha; for pest or weed control at 500 g/ha: 500 g ai/ha
Method in brief: as §1

[9] = test system: corn (Zea mays); test: Test B pre/postemergence; conditions: Zea mays
Method in brief: as §1

[10] = test system: morningglory (Ipomoea coccinea); test: Test B pre/postemergence; conditions: Ipomoea; for pest or weed control at 125 g/ha: 125 g ai/ha; for pest or weed control at 500 g/ha: 500 g ai/ha
Method in brief: as §1

[11] = test system: lambsquarters (Chenopodium album); test: Test B pre/postemergence; conditions: Chenopodium album; for pest or weed control at 125 g/ha: 125 g ai/ha; for pest or weed control at 500 g/ha: 500 g ai/ha
Method in brief: as §1

[12] = test system: blackgrass (Alopecurus myosuroides); test: Test B postemergence; conditions: Alopecurus myosuroides, post-emergence
Method in brief: as §1

[13] = test system: wild oat (Avena fatua); test: Test B postemergence; conditions: Avena fatua, post-emergence
Method in brief: as §1

[14] = test system: duck salad (Heteranthera limosa); test: Test B flooded paddy test; conditions: Heteranthera limosa, Flood, 1000 g ai/ha; scale 0 to 100; read-out: Plant response rating, Ducksalad
Method in brief: (§2)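 Rice, umbrella sedge, duck salad and barnyardgrass grown to 2-leaf stage under flooded paddy conditions and treated with formulated test chemicals. Kept in greenhouse 13–15 days, then visually rated against untreated controls on a 0–100 scale (0 no effect, 100 complete control).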

[15] = test system: barnyardgrass (Echinochloa crus-galli); test: Test B flooded paddy test; conditions: Echinochloa crus-galli, Flood, 1000 g ai/ha; scale 0 (no effect) to 100 (complete control); read-out: Plant response rating, Barnyardgrass
Method in brief: as §2

[16] = test system: rice (Oryza sativa); test: Test B flooded paddy test; conditions: Oryza sativa, Flood, 1000 g ai/ha; scale 0 to 100; read-out: Plant response rating, Rice
Method in brief: as §2

[17] = test system: umbrella sedge (Cyperus difformis); test: Test B flooded paddy test; conditions: Cyperus difformis, Flood, 1000 g ai/ha; scale 0 to 100; read-out: Plant response rating, Sedge, Umbrella
Method in brief: as §2

CCOC(=O)c1nc(-c2ccccc2)nc(N)c1Br [Compound 18]
pest or weed control at 125 g/ha ([1]; post-emergence, Postemergence, scale 0 to 100 (0 no effect, 100 complete control), read-out: Surinam Grass plant response rating): 0% | pest or weed control at 500 g/ha ([1]; post-emergence, Postemergence, scale 0 to 100, read-out: Plant response rating, Surinam Grass): 0% | pest or weed control at 125 g/ha ([1]; pre-emergence, Preemergence, scale 0 to 100 (0 no effect, 100 complete control), read-out: Plant response rating, Surinam Grass): 0% | pest or weed control at 500 g/ha ([1]; pre-emergence, Preemergence, scale 0 to 100 (0 no effect, 100 complete control), read-out: Surinam Grass plant response rating): 0% | pest or weed control at 125 g/ha ([2]; post-emergence, Postemergence, scale 0 to 100 (0 no effect, 100 complete control), read-out: Barnyardgrass plant response rating): 0% | pest or weed control at 500 g/ha ([2]; post-emergence, Postemergence, scale 0 to 100, read-out: Plant response rating, Barnyardgrass): 0% | pest or weed control at 125 g/ha ([2]; pre-emergence, Preemergence, scale 0 to 100 (0 no effect, 100 complete control), read-out: Plant response rating, Barnyardgrass): 0% | pest or weed control at 500 g/ha ([2]; pre-emergence, Preemergence, scale 0 to 100 (0 no effect, 100 complete control), read-out: Barnyardgrass plant response rating): 0% | plant injury at 125 g/ha ([3]; post-emergence, Postemergence, scale 0 to 100 (0 no effect, 100 complete control), read-out: Wheat plant response rating): 0% | plant injury at 500 g/ha ([3]; post-emergence, Postemergence, scale 0 to 100, read-out: Plant response rating, Wheat): 0% | plant injury at 125 g/ha ([3]; pre-emergence, Preemergence, scale 0 to 100 (0 no effect, 100 complete control), read-out: Plant response rating, Wheat): 0% | plant injury at 500 g/ha ([3]; pre-emergence, Preemergence, scale 0 to 100 (0 no effect, 100 complete control), read-out: Wheat plant response rating): 0% | pest or weed control at 125 g/ha ([4]; post-emergence, Postemergence, scale 0 to 100 (0 no effect, 100 complete control), read-out: Foxtail, Giant plant response rating): 0% | pest or weed control at 500 g/ha ([4]; post-emergence, Postemergence, scale 0 to 100, read-out: Plant response rating, Foxtail, Giant): 0% | pest or weed control at 125 g/ha ([4]; pre-emergence, Preemergence, scale 0 to 100 (0 no effect, 100 complete control), read-out: Plant response rating, Foxtail, Giant): 0% | pest or weed control at 500 g/ha ([4]; pre-emergence, Preemergence, scale 0 to 100 (0 no effect, 100 complete control), read-out: Foxtail, Giant plant response rating): 0% | pest or weed control at 125 g/ha ([5]; post-emergence, Postemergence, scale 0 to 100 (0 no effect, 100 complete control), read-out: Velvetleaf plant response rating): 20% | pest or weed control at 500 g/ha ([5]; post-emergence, Postemergence, scale 0 to 100, read-out: Plant response rating, Velvetleaf): 50% | pest or weed control at 125 g/ha ([5]; pre-emergence, Preemergence, scale 0 to 100 (0 no effect, 100 complete control), read-out: Plant response rating, Velvetleaf): 0% | pest or weed control at 500 g/ha ([5]; pre-emergence, Preemergence, scale 0 to 100 (0 no effect, 100 complete control), read-out: Velvetleaf plant response rating): 40% | pest or weed control at 125 g/ha ([6]; post-emergence, Postemergence, scale 0 to 100 (0 no effect, 100 complete control), read-out: Pigweed plant response rating): 20% | pest or weed control at 500 g/ha ([6]; post-emergence, Postemergence, scale 0 to 100, read-out: Plant response rating, Pigweed): 70% | pest or weed control at 125 g/ha ([6]; pre-emergence, Preemergence, scale 0 to 100 (0 no effect, 100 complete control), read-out: Plant response rating, Pigweed): 0% | pest or weed control at 500 g/ha ([6]; pre-emergence, Preemergence, scale 0 to 100 (0 no effect, 100 complete control), read-out: Pigweed plant response rating): 70% | pest or weed control at 125 g/ha ([7]; post-emergence, Postemergence, scale 0 to 100 (0 no effect, 100 complete control), read-out: Cocklebur plant response rating): 70% | pest or weed control at 500 g/ha ([7]; post-emergence, Postemergence, scale 0 to 100, read-out: Plant response rating, Cocklebur): 70% | pest or weed control at 125 g/ha ([7]; pre-emergence, Preemergence, scale 0 to 100 (0 no effect, 100 complete control), read-out: Plant response rating, Cocklebur): 10% | pest or weed control at 500 g/ha ([7]; pre-emergence, Preemergence, scale 0 to 100 (0 no effect, 100 complete control), read-out: Cocklebur plant response rating): 40% | pest or weed control at 125 g/ha ([8]; post-emergence, Postemergence, scale 0 to 100 (0 no effect, 100 complete control), read-out: Crabgrass plant response rating): 0% | pest or weed control at 500 g/ha ([8]; post-emergence, Postemergence, scale 0 to 100, read-out: Plant response rating, Crabgrass): 0% | pest or weed control at 125 g/ha ([8]; pre-emergence, Preemergence, scale 0 to 100 (0 no effect, 100 complete control), read-out: Plant response rating, Crabgrass): 0% | pest or weed control at 500 g/ha ([8]; pre-emergence, Preemergence, scale 0 to 100 (0 no effect, 100 complete control), read-out: Crabgrass plant response rating): 0% | plant injury at 125 g/ha ([9]; post-emergence, Postemergence, 125 g ai/ha, scale 0 to 100 (0 no effect, 100 complete control), read-out: Corn plant response rating): 0% | Corn plant response rating (crop injury, 0 = no effect, 100 = complete kill) at 500 g/ha ([9]; post-emergence, Postemergence, 500 g ai/ha, scale 0 to 100): 0% | Corn plant response rating (crop injury, 0 = no effect, 100 = complete kill) at 125 g/ha ([9]; pre-emergence, Preemergence, 125 g ai/ha, scale 0 to 100 (0 no effect, 100 complete control)): 0% | plant injury at 500 g/ha ([9]; pre-emergence, Preemergence, 500 g ai/ha, scale 0 to 100 (0 no effect, 100 complete control), read-out: Corn plant response rating): 0% | pest or weed control at 125 g/ha ([10]; post-emergence, Postemergence, scale 0 to 100 (0 no effect, 100 complete control), read-out: Morningglory plant response rating): 20% | pest or weed control at 500 g/ha ([10]; post-emergence, Postemergence, scale 0 to 100, read-out: Plant response rating, Morningglory): 70% | pest or weed control at 125 g/ha ([10]; pre-emergence, Preemergence, scale 0 to 100 (0 no effect, 100 complete control), read-out: Plant response rating, Morningglory): 0% | pest or weed control at 500 g/ha ([10]; pre-emergence, Preemergence, scale 0 to 100 (0 no effect, 100 complete control), read-out: Morningglory plant response rating): 0% | pest or weed control at 125 g/ha ([11]; post-emergence, Postemergence, scale 0 to 100 (0 no effect, 100 complete control), read-out: Lambsquarters plant response rating): 70% | pest or weed control at 500 g/ha ([11]; post-emergence, Postemergence, scale 0 to 100, read-out: Plant response rating, Lambsquarters): 90% | pest or weed control at 125 g/ha ([11]; pre-emergence, Preemergence, scale 0 to 100 (0 no effect, 100 complete control), read-out: Plant response rating, Lambsquarters): 10% | pest or weed control at 500 g/ha ([11]; pre-emergence, Preemergence, scale 0 to 100 (0 no effect, 100 complete control), read-out: Lambsquarters plant response rating): 60% | pest or weed control at 125 g/ha ([12]; 125 g ai/ha, scale 0 to 100 (0 no effect, 100 complete control), read-out: Blackgrass plant response rating): 0% | pest or weed control at 500 g/ha ([12]; 500 g ai/ha, scale 0 to 100, read-out: Plant response rating, Blackgrass): 0% | pest or weed control at 125 g/ha ([13]; 125 g ai/ha, scale 0 to 100 (0 no effect, 100 complete control), read-out: Oat, Wild plant response rating): 0% | pest or weed control at 500 g/ha ([13]; 500 g ai/ha, scale 0 to 100, read-out: Plant response rating, Oat, Wild): 0% | pest or weed control at 1000 g/ha [14]: 80% | pest or weed control at 1000 g/ha [15]: 0% | plant injury at 1000 g/ha [16]: 0% | pest or weed control at 1000 g/ha [17]: 0%
